Results on 37 compounds are retold here after ChEMBL document CHEMBL3991601, “The target landscape of clinical kinase drugs” (Science, 2017).

Assay [1] addresses T1, Tyrosine-protein kinase Mer (Homo sapiens, UniProt Q12866).
T1 sequence (Q12866 whole entry): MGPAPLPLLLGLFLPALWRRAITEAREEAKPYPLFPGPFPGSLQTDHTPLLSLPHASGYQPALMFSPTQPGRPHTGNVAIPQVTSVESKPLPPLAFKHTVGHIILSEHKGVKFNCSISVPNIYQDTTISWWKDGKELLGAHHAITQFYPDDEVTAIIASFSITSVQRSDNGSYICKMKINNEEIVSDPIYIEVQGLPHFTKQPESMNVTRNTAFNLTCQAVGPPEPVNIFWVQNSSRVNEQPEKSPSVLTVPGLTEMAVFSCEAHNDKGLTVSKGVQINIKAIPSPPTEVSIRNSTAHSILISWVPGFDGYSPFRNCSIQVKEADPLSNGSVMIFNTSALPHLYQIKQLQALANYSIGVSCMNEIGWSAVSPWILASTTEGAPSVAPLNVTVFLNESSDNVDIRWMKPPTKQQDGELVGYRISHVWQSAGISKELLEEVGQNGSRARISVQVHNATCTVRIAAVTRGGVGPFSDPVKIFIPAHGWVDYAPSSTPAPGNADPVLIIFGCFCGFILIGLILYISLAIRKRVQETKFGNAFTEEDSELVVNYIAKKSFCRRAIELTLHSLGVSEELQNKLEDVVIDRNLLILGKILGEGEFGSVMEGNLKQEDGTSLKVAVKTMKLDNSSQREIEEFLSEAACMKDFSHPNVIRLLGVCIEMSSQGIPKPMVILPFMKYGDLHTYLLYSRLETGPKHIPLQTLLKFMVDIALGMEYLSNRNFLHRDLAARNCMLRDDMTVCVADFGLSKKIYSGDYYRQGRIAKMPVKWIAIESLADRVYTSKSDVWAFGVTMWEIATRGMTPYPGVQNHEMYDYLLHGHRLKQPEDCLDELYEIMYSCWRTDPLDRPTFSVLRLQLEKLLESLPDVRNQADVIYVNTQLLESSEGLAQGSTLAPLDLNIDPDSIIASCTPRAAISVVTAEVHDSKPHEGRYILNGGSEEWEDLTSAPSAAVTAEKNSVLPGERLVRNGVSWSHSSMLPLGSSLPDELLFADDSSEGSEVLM

The target in assay [2] is ALK tyrosine kinase receptor (Homo sapiens, UniProt Q9UM73). The format is subcellular, K-562, COLO 205, SK-N-BE(2) and MV-4-11, Cell lysate. Particulars: read-out: Kd apparent.
Chain of ALK tyrosine kinase receptor (Q9UM73 whole entry): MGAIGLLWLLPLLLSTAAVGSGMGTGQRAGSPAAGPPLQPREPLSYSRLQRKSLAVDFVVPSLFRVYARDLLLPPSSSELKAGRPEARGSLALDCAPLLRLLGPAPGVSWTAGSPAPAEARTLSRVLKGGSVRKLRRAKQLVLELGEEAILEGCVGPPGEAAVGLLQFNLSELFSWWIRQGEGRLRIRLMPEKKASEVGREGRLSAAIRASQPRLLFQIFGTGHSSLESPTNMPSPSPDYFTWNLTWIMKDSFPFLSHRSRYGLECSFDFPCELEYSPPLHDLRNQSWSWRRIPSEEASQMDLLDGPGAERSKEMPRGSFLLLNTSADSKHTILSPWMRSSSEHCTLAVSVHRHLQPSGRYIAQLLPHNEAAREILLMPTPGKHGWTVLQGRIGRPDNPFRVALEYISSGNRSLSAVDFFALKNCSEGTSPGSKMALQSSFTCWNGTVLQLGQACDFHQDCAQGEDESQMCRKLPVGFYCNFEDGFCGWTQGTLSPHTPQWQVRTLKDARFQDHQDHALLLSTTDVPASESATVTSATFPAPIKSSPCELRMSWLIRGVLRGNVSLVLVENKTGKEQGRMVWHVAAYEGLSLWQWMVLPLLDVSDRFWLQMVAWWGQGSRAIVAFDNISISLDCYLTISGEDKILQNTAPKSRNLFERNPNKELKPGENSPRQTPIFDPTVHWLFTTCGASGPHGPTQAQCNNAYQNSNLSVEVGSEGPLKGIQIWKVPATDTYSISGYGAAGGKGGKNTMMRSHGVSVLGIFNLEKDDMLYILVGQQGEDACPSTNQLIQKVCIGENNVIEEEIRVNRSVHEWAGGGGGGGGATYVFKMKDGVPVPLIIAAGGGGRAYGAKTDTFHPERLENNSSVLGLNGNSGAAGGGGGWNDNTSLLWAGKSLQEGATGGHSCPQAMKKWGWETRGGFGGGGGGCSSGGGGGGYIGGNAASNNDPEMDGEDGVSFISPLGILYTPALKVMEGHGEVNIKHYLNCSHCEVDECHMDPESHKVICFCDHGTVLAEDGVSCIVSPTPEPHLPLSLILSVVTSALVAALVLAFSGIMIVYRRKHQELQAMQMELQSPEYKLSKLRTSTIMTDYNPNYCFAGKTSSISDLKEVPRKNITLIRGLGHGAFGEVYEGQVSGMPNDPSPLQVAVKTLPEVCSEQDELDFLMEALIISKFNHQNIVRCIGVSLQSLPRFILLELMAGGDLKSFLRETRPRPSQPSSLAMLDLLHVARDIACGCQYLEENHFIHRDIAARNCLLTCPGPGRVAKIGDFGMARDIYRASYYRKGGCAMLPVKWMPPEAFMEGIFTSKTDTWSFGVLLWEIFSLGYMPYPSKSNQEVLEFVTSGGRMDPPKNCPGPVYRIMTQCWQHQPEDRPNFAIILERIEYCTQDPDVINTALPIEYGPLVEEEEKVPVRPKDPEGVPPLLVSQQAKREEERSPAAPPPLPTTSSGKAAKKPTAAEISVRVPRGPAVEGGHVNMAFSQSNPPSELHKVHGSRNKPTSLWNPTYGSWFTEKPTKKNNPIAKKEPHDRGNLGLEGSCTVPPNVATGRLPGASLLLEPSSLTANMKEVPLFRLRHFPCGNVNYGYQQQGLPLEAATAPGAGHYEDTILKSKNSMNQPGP
Assay [3] deals with Serine/threonine-protein kinase 38 (Homo sapiens, UniProt Q15208).
Chain of Serine/threonine-protein kinase 38 (Q15208 whole entry): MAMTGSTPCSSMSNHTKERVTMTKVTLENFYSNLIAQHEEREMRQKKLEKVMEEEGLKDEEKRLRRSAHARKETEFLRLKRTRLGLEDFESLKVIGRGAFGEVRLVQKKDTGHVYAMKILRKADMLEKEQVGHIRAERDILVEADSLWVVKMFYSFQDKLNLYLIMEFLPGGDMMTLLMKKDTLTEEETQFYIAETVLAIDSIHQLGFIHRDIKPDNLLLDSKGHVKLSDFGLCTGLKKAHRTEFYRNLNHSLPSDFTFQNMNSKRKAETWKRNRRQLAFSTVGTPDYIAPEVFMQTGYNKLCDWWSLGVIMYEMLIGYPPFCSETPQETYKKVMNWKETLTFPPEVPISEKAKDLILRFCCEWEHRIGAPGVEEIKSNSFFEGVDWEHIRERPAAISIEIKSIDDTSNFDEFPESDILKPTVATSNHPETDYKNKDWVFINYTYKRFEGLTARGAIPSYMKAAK
Assay [4] deals with Eukaryotic peptide chain release factor GTP-binding subunit ERF3B (Homo sapiens, UniProt Q8IYD1).
Chain of Eukaryotic peptide chain release factor GTP-binding subunit ERF3B (Q8IYD1 whole entry): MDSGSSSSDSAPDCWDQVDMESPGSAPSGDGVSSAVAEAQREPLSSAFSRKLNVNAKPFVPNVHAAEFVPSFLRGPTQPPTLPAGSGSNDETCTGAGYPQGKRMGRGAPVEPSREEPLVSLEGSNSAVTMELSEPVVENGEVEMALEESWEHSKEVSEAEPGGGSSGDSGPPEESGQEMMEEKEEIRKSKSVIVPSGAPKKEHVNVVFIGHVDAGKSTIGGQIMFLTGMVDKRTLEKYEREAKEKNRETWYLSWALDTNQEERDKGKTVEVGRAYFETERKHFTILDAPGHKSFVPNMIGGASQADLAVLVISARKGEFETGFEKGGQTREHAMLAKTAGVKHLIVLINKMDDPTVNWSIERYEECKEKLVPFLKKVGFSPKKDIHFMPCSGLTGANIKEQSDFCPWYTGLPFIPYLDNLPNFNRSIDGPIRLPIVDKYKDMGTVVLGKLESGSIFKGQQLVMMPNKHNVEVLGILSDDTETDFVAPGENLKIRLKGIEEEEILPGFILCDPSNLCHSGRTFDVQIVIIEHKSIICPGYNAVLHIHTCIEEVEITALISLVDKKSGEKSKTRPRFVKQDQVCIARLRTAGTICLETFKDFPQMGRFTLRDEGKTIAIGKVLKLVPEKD
Assay [5] concerns the target Cyclin-dependent kinase 10 (Homo sapiens, UniProt Q15131).
Assay [6] deals with Tyrosine-protein kinase JAK2 (Homo sapiens, UniProt O60674).
Chain of Tyrosine-protein kinase JAK2 (O60674 whole entry): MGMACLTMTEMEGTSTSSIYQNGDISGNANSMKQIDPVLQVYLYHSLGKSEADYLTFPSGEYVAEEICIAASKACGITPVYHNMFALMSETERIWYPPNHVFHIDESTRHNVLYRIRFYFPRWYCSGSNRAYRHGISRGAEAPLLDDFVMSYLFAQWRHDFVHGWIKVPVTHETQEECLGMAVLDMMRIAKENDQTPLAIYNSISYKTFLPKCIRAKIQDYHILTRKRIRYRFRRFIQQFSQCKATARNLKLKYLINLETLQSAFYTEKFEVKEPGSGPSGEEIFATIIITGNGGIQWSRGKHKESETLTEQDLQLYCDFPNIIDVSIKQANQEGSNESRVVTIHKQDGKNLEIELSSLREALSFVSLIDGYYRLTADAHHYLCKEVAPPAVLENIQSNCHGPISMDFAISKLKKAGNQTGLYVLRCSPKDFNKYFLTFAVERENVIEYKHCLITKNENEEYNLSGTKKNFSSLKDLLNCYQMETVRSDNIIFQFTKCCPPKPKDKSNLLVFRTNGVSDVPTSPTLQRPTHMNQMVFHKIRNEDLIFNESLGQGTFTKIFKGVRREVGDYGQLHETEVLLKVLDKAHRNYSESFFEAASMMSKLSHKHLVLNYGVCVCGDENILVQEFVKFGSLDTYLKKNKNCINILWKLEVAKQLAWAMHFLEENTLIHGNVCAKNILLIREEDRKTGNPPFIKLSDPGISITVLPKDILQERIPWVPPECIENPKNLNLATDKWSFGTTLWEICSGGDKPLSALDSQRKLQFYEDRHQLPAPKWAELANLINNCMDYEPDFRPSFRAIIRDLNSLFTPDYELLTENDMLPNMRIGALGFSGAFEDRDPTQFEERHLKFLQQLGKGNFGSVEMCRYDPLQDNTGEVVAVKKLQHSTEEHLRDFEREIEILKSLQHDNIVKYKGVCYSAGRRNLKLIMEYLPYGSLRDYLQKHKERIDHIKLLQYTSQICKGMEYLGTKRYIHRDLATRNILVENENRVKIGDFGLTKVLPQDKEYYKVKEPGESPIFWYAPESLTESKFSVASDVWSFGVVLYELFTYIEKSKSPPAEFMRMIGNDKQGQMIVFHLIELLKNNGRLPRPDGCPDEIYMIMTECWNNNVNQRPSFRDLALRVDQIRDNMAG
Assay [7] addresses Activin receptor type-1-like (Homo sapiens, UniProt P37023).
In assay [8] the target is Ras-related C3 botulinum toxin substrate 1 (Homo sapiens, UniProt P63000).

The source made the active and inactive calls.
Further: in the data inactive means no Kd found up to 30 µM.

Chain of Cyclin-dependent kinase 10 (Q15131 whole entry): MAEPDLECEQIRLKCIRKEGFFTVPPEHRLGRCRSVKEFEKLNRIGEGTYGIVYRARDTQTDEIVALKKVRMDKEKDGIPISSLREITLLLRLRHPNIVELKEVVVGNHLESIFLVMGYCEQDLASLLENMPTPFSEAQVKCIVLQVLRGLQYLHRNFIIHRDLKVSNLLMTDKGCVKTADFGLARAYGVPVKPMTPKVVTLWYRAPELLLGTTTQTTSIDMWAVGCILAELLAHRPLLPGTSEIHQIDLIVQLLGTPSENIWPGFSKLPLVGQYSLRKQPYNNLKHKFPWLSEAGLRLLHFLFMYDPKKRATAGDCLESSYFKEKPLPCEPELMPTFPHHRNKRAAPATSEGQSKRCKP
Chain of Activin receptor type-1-like (P37023 whole entry): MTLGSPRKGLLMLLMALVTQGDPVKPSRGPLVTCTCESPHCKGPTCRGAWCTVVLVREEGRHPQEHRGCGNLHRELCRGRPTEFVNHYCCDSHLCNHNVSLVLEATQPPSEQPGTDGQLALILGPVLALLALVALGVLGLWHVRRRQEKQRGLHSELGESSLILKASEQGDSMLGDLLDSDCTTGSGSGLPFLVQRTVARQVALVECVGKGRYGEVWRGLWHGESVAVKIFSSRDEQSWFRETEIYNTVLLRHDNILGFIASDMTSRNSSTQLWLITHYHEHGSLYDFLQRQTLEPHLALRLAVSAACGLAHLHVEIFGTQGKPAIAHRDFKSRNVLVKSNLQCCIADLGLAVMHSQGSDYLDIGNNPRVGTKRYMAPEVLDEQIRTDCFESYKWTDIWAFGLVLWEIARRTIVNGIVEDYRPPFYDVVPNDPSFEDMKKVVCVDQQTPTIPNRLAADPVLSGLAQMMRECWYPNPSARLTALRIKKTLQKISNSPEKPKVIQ

Consider `Cc1ccc(S(=O)(=O)Nc2nc3ccccc3nc2Nc2ccc3nsnc3c2)cc1`, for which the Kd in assay [1] and in assay [2] was > 30 µM (inactive) in each case.

For `Cn1cc(-c2ccc(F)c(C(F)(F)F)c2)nc1C1CCN(c2ncnc3[nH]ncc23)CC1` [LY-2584702], in assay [3], the Kd was > 30 µM (inactive).

For the compound `COc1cc(OC)c(/C=C/S(=O)(=O)Cc2ccc(OC)c(NCC(=O)O)c2)c(OC)c1` [RIGOSERTIB], the Kd in assay [3] is > 30 µM (inactive).

Take `CCn1c(=O)c(-c2cc[nH]n2)cc2c(C)nc(N)nc21` [VOXTALISIB]: the Kd in assay [4] and in assay [3] was > 30 µM (inactive) throughout.

Regarding `OCCn1cc(-c2cnc3nnn(Cc4ccc5ncccc5c4)c3n2)cn1` [PF-04217903], the Kd in assay [4], in assay [3] and in assay [1] was > 30 µM (inactive) throughout.

As to `CCCS(=O)(=O)Nc1ccc(F)c(C(=O)c2c[nH]c3ncc(-c4ccc(Cl)cc4)cc23)c1F` [VEMURAFENIB], the Kd in assay [4], in assay [5], in assay [1] and in assay [6] was > 30 µM (inactive) each time.

For `O=C(Nc1ccc(-c2ccnc(Nc3ccc(N4CCOCC4)cc3)n2)cc1)C1CCCN1` (stereo unspecified) [XL-019], the Kd in assay [3], in assay [1] and in assay [2] was > 30 µM (inactive) throughout.

Turning to `CNC(=O)CN1CCC(Oc2cc3c(Nc4cccc(Cl)c4F)ncnc3cc2OC)CC1` [SAPITINIB], the Kd in assay [1] is > 30 µM (inactive).

For the compound `Cc1cc(Nc2cc(N3CCN(C)CC3)nc(/C=C/c3ccccc3)n2)n[nH]1` [ENMD-2076], the Kd in assay [5], in assay [3] and in assay [7] was > 30 µM (inactive) throughout.

For the compound `COC(=O)N[C@@H](C)CNc1nccc(-c2cn(C(C)C)nc2-c2cc(Cl)cc(NS(C)(=O)=O)c2F)n1` [ENCORAFENIB], the Kd in assay [4], in assay [5], in assay [1] and in assay [6] was > 30 µM (inactive) each time.

Turning to `CNC(=O)c1ccc(-c2cnc3ncc(Cc4ccc5ncccc5c4)n3n2)cc1F` [CAPMATINIB], the Kd in assay [4], in assay [3], in assay [1] and in assay [7] was > 30 µM (inactive) throughout.

For the compound `COC(=O)[C@@]1(O)C[C@H]2O[C@]1(C)n1c3ccccc3c3c4c(c5c6ccccc6n2c5c31)C(=O)NC4` [K-252A], the Kd in assay [5] is > 30 µM (inactive); in assay [3], > 30 µM (inactive); in assay [1] it was 0.041 µM; in assay [2], > 30 µM (inactive).

With `CCS(=O)(=O)N1CC(CC#N)(n2cc(-c3ncnc4[nH]ccc34)cn2)C1` [BARICITINIB], the Kd in assay [4] and in assay [7] was > 30 µM (inactive) in each case.

Take `CNS(=O)(=O)Nc1nccc(Cc2c(C)c3ccc(Oc4ncccn4)cc3oc2=O)c1F` [AVUTOMETINIB]: in assay [6], the Kd was > 30 µM (inactive).

For `C[C@@H](Nc1cc(F)cc(F)c1)c1cc(C(=O)N(C)C)cc2c(=O)cc(N3CCOCC3)oc12` [AZD-8186], the Kd in assay [3] is > 30 µM (inactive).

For the compound `Cc1c(F)cc(C(=O)NC2CC2)cc1-c1ccc(C(=O)NCC(C)(C)C)cn1` [LOSMAPIMOD], the Kd in assay [3] and in assay [1] was > 30 µM (inactive) each time.

As for `COc1cc(CCc2cc(NC(=O)c3ccc(N4C[C@@H](C)N[C@@H](C)C4)cc3)n[nH]2)cc(OC)c1` [AZD-4547], the Kd in assay [3], in assay [1], in assay [2] and in assay [7] was > 30 µM (inactive) each time.

Turning to `C=CC(=O)N1CCC(Oc2cc3c(Nc4ccc(Cl)c(Cl)c4F)ncnc3cc2OC)CC1` [POZIOTINIB], the Kd in assay [3] and in assay [8] was > 30 µM (inactive) each time.

Take `CN1CCN(c2ccc3nc(-c4c(N)c5c(F)cccc5[nH]c4=O)[nH]c3c2)CC1` [DOVITINIB]: the Kd in assay [5] is > 30 µM (inactive).

In the case of `Cc1cc2c(F)c(Oc3ncnn4cc(OC[C@@H](C)OC(=O)[C@H](C)N)c(C)c34)ccc2[nH]1` [BRIVANIB ALANINATE], the Kd in assay [6] was > 30 µM (inactive).

Regarding `O=C(Nc1cccc(Cl)c1)Nc1ncc(CCNc2ncnc3ccsc23)s1` [SNS-314], the Kd in assay [4] and in assay [5] was > 30 µM (inactive) in each case.

Regarding `C[C@@H]1CN(Cc2ccc(F)cc2)[C@@H](C)CN1C(=O)c1cc2c(C(=O)C(=O)N(C)C)cn(C)c2cc1Cl` [TALMAPIMOD], the Kd in assay [3] is > 30 µM (inactive).

For the compound `COc1cc2nccc(Oc3ccc(NC(=O)NC4CC4)c(Cl)c3)c2cc1C(N)=O` [LENVATINIB], the Kd in assay [6] was > 30 µM (inactive).

Take `CNC(=O)c1ccc(C)c(-n2c(C)cc(OCc3ccc(F)cc3F)c(Br)c2=O)c1` [PH-797804]: the Kd in assay [3] is > 30 µM (inactive).

For `COc1cc2nccc(Oc3ccc(NC(=O)Nc4cc(C)on4)c(Cl)c3)c2cc1OC` [TIVOZANIB], the Kd in assay [5] and in assay [1] was > 30 µM (inactive) throughout.

Turning to `N[C@@H]1CCCN(c2c(/C=C3\SC(=O)NC3=O)cccc2-c2ccccc2)C1`, in assay [4], the Kd was > 30 µM (inactive).

`Cc1cc([C@@H](C)Nc2ccccc2C(=O)O)c2nc(N3CCOCC3)cc(=O)n2c1` [AZD-6482]: the Kd in assay [3] and in assay [1] was > 30 µM (inactive) each time.

`CN1CCC(CNc2ccc3ncc(-c4cccc(OC(F)(F)F)c4)n3n2)CC1` [SGI-1776]: the Kd in assay [1] was > 30 µM (inactive).

For `CC(C)Nc1cc(-c2c[nH]c(C(=O)N[C@H](CO)c3cccc(Cl)c3)c2)c(Cl)cn1` [ULIXERTINIB], the Kd in assay [4], in assay [5] and in assay [1] was > 30 µM (inactive) in each case.

For `O=c1sn(-c2cccc3ccccc23)c(=O)n1Cc1ccccc1` [TIDEGLUSIB], the Kd in assay [4], in assay [5] and in assay [1] was > 30 µM (inactive) in each case.

For `Cc1ccc(-n2nc(C(C)(C)C)cc2NC(=O)NCc2cc(F)ccc2Oc2ccc3c(cnn3CCO)c2)cc1` [PEXMETINIB], the Kd was > 30 µM (inactive) in assay [3] and 2.81 µM in assay [1].

In the case of `Cc1ccc(NC(=O)c2ccc(CN3CC[C@H](N(C)C)C3)c(C(F)(F)F)c2)cc1Nc1nccc(-c2cncnc2)n1` [BAFETINIB], the Kd in assay [4], in assay [5], in assay [2] and in assay [6] was > 30 µM (inactive) each time.

In the case of `Cn1cc(-c2ccc3nnc(C(F)(F)c4ccc5ncccc5c4)n3n2)cn1` [JNJ-38877605], the Kd in assay [5] is > 30 µM (inactive).

For the compound `Cc1cn(-c2cc(NC(=O)c3ccc(C)c(Nc4nccc(-c5cccnc5)n4)c3)cc(C(F)(F)F)c2)cn1` [NILOTINIB], in assay [8], the Kd was > 30 µM (inactive).

With `CN1CC[C@@H](c2c(O)cc(O)c3c(=O)cc(-c4ccccc4Cl)oc23)[C@@H]1CO`, the Kd in assay [1] and in assay [8] was > 30 µM (inactive) throughout.

As for `O=C(c1ccc(F)c(F)c1Nc1ccc(I)cc1F)N1CC(O)([C@@H]2CCCCN2)C1` [COBIMETINIB], the Kd in assay [8] was > 30 µM (inactive).

In the case of `Cc1cc(-c2cc(O)ccc2Cl)cc2nnc(Nc3ccc(OCCN4CCCC4)cc3)nc12`, the Kd in assay [8] and in assay [2] was > 30 µM (inactive) throughout.
